Measured values as given in patent publication US20230113775A1, “ANHYDROUS COMPOSITIONS OF EGFR INHIBITORS AND METHODS OF USE” (priority 2021, published 2023).
Entries after “also recorded” stand apart in the source; their conditions may differ.

Tests used:
[1] = system: Non-diseased 3D human skin equivalent (HSE); assay: Gene expression analysis, non-diseased 3D HSE; format: cell-based
Method: (§1) Non-diseased cells and cells from an EI patient were plated for 3D human skin equivalent (HSE)and treated with the erlotinib at 10 nM or 100 nM from the time of lifting to the air-liquid interface every 72 hours until harvest at day 10. The samples were subjected to gene expression analysis. […] Markers of terminal differentiation such as fillaggrin (FLG) and loricrin (LOR) and markers of cell adhesion such as desmoglein 1 (DSG 1) were also modified.
Gene expression results for non-diseased tissue following treatment with erlotinib: […]

[2] = system: Hairless Skh-1 mice treated with TPA; assay: Mouse model of hyperkeratosis (TPA-induced skin inflammation); format: in vivo; conditions: composition comprising 0.4%, 1.0% or 4.0% erlotinib daily starting on Day 8
Method: Hairless Skh-1 mice were treated with 12-O-Tetradecanoylphorbol-13-acetate (TPA) daily for 7 days than every other day for the next 7 days to induce skin inflammation. The mice were then treated with vehicle or a composition comprising 0.4%, 1.0% or 4.0% erlotinib daily starting on Day 8. The mice were assessed for degrees of inflammation, transepidermal water loss and expression of p^Y1068EGFR, EGFR, KRT10 and KRT16.

[3] = system: Non-diseased 3D human skin equivalent (HSE); assay: Effect of erlotinib on non-diseased 3D human skin equivalent; format: cell-based; conditions: 100 nM erlotinib every 72 hours until harvest at day 10
Method: Human skin equivalents were prepared by methods known in the art. Examples of such methods are disclosed in Mieremet et al. Int. J. Mol. Sci. (2021) 22(11):5790. Non-diseased cells were plated for 3D human skin equivalent (HSE) and treated with 100 nM erlotinib from the time of lifting to the air-liquid interface every 72 hours until harvest at day 10. The samples were subjected to protein, mRNA, immunofluorescence and morphological analysis.

EI derived keratinocyte = assay: Effect of erlotinib on 2D cultured keratinocytes derived from epidermolytic ichthyosis (colony density); format: cell-based, human; conditions: 100 nM erlotinib; microscope and fold change
Method: Tissue from non-diseased donors and EI patients were cultured and treated with 100 nM erlotinib.

3D EI HSE = assay: Effect of erlotinib on EI 3D HSE (morphological analysis); format: cell-based, human; conditions: 100 nM erlotinib every 72 hours until harvest at day 12; EI constructs
Method: Non-diseased cells and cells from an EI patient were plated for 3D human skim equivalent (HSE)and treated with 100 nM erlotinib from the time of lifting to the air-liquid interface every 72 hours until harvest at day 12. The samples were subjected to morphological analysis. […] (FIGS. 4A-B).

EI 3D HSE = assay: TEER epidermal barrier function, EI 3D HSE; format: cell-based, human; conditions: 10 nM and 100 nM erlotinib
[4] = system: Normal keratinocyte cells; assay: Effect of erlotinib on 2D non-diseased keratinocytes (proliferation, Loricrin expression); format: cell-based
Method: Normal keratinocyte cells were cultured and treated with vehicle or erlotinib at 100, 500 and 1000 nM. The proliferation rate of the cells was determined.

non-diseased 3D HSE = assay: TEER epidermal barrier function, non-diseased 3D HSE; format: cell-based, human; conditions: 10 nM and 100 nM erlotinib
[5] = system: EI patient 3D human skin equivalent (HSE); assay: Gene expression analysis, EI patient 3D HSE; format: cell-based; conditions: for CDN4 gene expression / CLDN1 gene expression / DSC1 gene expression / DSG1 gene expression / FLG gene expression / IVL gene expression / KRT10 gene expression / KRT16 gene expression / LOR gene expression / OCLN gene expression / TJP1 gene expression: Control 1.00
Method: as §1
Gene expression results for EI patient tissue following treatment with erlotinib: […]

[6] = Erlo 10 nM, NHEK83.19 non-diseased 3D HSE, Control 1.00
[7] = Erlo 10 nM, NUTC394.14 non-diseased 3D HSE, Control 1.00
[8] = Erlo 10 nM, NUTC439.14 non-diseased 3D HSE, Control 1.0
[9] = Erlo 100 nM, NHEK83.19 non-diseased 3D HSE, Control 1.00
[10] = Erlo 100 nM, NUTC394.14 non-diseased 3D HSE, Control 1.00
[11] = Erlo 100 nM, NUTC439.14 non-diseased 3D HSE, Control 1.0
[12] = harvest day 10, listed as Erlotinib
[13] = Erlo 10 nM, CMH98.11 EI patient 3D HSE
[14] = Erlo 10 nM, CMH101.11 EI patient 3D HSE
[15] = Erlo 10 nM, CMH102.11 EI patient 3D HSE
[16] = Erlo 100 nM, CMH98.11 EI patient 3D HSE
[17] = Erlo 100 nM, CMH101.11 EI patient 3D HSE
[18] = Erlo 100 nM, CMH102.11 EI patient 3D HSE

For `C#Cc1cccc(Nc2ncnc3cc(OCCOC)c(OCCOC)cc23)c1` [erlotinib], the CDN4 gene expression [1, 6] was 2.92, the CLDN1 gene expression [1, 6] was 1.30 and the DSC1 gene expression [1, 6] was 0.60. The DSG1 gene expression [1, 6] was 0.73, the FLG gene expression [1, 6] was 0.51 and the IVL gene expression [1, 6] was 2.15. For the same compound, the KRT10 gene expression [1, 6] was 0.28, the KRT16 gene expression [1, 6] was 1.70 and the LOR gene expression [1, 6] was 0.03. The OCLN gene expression [1, 6] was 1.76, the TJP1 gene expression [1, 6] was 1.65 and the CDN4 gene expression [1, 7] was 2.87. It also gave a CLDN1 gene expression [1, 7] of 1.28, a DSC1 gene expression [1, 7] of 0.59 and a DSG1 gene expression [1, 7] of 0.72. For the same compound, the FLG gene expression [1, 7] was 0.50, the IVL gene expression [1, 7] was 2.11 and the KRT10 gene expression [1, 7] was 0.27. It also gave a KRT16 gene expression [1, 7] of 1.67, an LOR gene expression [1, 7] of 0.03 and an OCLN gene expression [1, 7] of 1.73. It also gave a TJP1 gene expression [1, 7] of 1.62, a CDN4 gene expression [1, 8] of 0.7 and a CLDN1 gene expression [1, 8] of 1.9. The DSC1 gene expression [1, 8] was 1.9, the DSG1 gene expression [1, 8] was 2.1 and the FLG gene expression [1, 8] was 1.0. The IVL gene expression [1, 8] was 0.9, the KRT10 gene expression [1, 8] was 2.1 and the KRT16 gene expression [1, 8] was 0.9. It also gave an LOR gene expression [1, 8] of 1.4, an OCLN gene expression [1, 8] of 0.7 and a TJP1 gene expression [1, 8] of 0.7. The CDN4 gene expression [1, 9] was 1.65, the CLDN1 gene expression [1, 9] was 1.24 and the DSC1 gene expression [1, 9] was 2.69. It also gave a DSG1 gene expression [1, 9] of 2.77, an FLG gene expression [1, 9] of 2.37 and an IVL gene expression [1, 9] of 1.21. The KRT10 gene expression [1, 9] was 11.50, the KRT16 gene expression [1, 9] was 1.00 and the LOR gene expression [1, 9] was 8.19. It also gave an OCLN gene expression [1, 9] of 1.36, a TJP1 gene expression [1, 9] of 1.58 and a CDN4 gene expression [1, 10] of 1.54. For the same compound, the CLDN1 gene expression [1, 10] was 1.16, the DSC1 gene expression [1, 10] was 2.52 and the DSG1 gene expression [1, 10] was 2.59. The FLG gene expression [1, 10] was 2.21, the IVL gene expression [1, 10] was 1.14 and the KRT10 gene expression [1, 10] was 10.75. The KRT16 gene expression [1, 10] was 0.89, the LOR gene expression [1, 10] was 7.66 and the OCLN gene expression [1, 10] was 1.27. It also gave a TJP1 gene expression [1, 10] of 1.48, a CDN4 gene expression [1, 11] of 1.4 and a CLDN1 gene expression [1, 11] of 29.4. The DSC1 gene expression [1, 11] was 29.4, the DSG1 gene expression [1, 11] was 9.3 and the FLG gene expression [1, 11] was 25.9. It also gave an IVL gene expression [1, 11] of 1.5, a KRT10 gene expression [1, 11] of 17.2 and a KRT16 gene expression [1, 11] of 1.6. For the same compound, the OCLN gene expression [1, 11] was 1.6, the TJP1 gene expression [1, 11] was 1.3 and the “keratin 10 (KRT10) expression” value ([1]; normal human keratinocytes in 3D culture, erlotinib 10 nM or 100 nM) was “marked increase”. For the same compound, the skin inflammation ([2]; TPA-treated Skh-1 mice) was “dose dependent reduction of skin inflammation”, the transepithelial water loss ([2]; TPA-treated Skh-1 mice) was “significantly decreasing transepithelial water loss” and the “expression of p^Y1068EGFR, EGFR, KRT10 and KRT16” value ([2]; Western blot) was “dose dependent change”. The desmosomal organization [3] was “desmosomal organization is enhanced”, the terminal differentiation [3] was “enhances terminal differentiation” and the “EI derived keratinocyte colony density” value (EI derived keratinocyte) was “marked reduction in colony density; also recorded: markedly reduced”. For the same compound, the “morphologic change in the upper epidermis” value (3D EI HSE) was “marked morphologic change”, the “epidermal barrier function (TEER)” value (EI 3D HSE; harvest day 10) was “does not impair epidermal barrier function” and the “epidermal barrier function (TEER)” value (EI 3D HSE; [12]) was “did not produced a significant change in TEER values”. The keratinocyte differentiation ([4]; following exposure to erlotinib) was “keratinocyte differentiation is increased”, the Loricrin expression ([4]; high dose erlotinib) was “increased Loricrin expression” and the keratinocyte proliferation ([4]; medium and high doses of erlotinib (tested 100, 500 and 1000 nM) vs vehicle) was “decreased keratinocyte proliferation”. For the same compound, the “epidermal barrier function (TEER)” value (non-diseased 3D HSE; harvest day 10) was “does not impair epidermal barrier function”, the “epidermal barrier function (TEER)” value (non-diseased 3D HSE; [12]) was “did not produced a significant change in TEER values” and the “keratin 10 (KRT10) expression” value ([5]; EI derived human keratinocytes in 3D culture, erlotinib 10 nM or 100 nM) was “marked increase”. The CDN4 gene expression [5, 13] was 0.7, the CLDN1 gene expression [5, 13] was 0.9 and the DSC1 gene expression [5, 13] was 0.8. For the same compound, the DSG1 gene expression [5, 13] was 1.8, the FLG gene expression [5, 13] was 1.2 and the IVL gene expression [5, 13] was 1.3. For the same compound, the KRT10 gene expression [5, 13] was 0.9, the KRT16 gene expression [5, 13] was 1.3 and the LOR gene expression [5, 13] was 1.2. It also gave an OCLN gene expression [5, 13] of 0.7, a TJP1 gene expression [5, 13] of 0.7 and a CDN4 gene expression [5, 14] of 0.96. It also gave a CLDN1 gene expression [5, 14] of 0.71, a DSC1 gene expression [5, 14] of 0.65 and a DSG1 gene expression [5, 14] of 1.11. The FLG gene expression [5, 14] was 1.08, the IVL gene expression [5, 14] was 1.04 and the KRT10 gene expression [5, 14] was 1.00. It also gave a KRT16 gene expression [5, 14] of 1.63, an LOR gene expression [5, 14] of 1.10 and an OCLN gene expression [5, 14] of 0.81. The TJP1 gene expression [5, 14] was 0.55, the CDN4 gene expression [5, 15] was 1.86 and the CLDN1 gene expression [5, 15] was 0.79. For the same compound, the DSC1 gene expression [5, 15] was 0.79, the DSG1 gene expression [5, 15] was 4.72 and the FLG gene expression [5, 15] was 1.22. It also gave an IVL gene expression [5, 15] of 1.58, a KRT10 gene expression [5, 15] of 2.27 and a KRT16 gene expression [5, 15] of 1.31. For the same compound, the LOR gene expression [5, 15] was 0.90, the OCLN gene expression [5, 15] was 1.15 and the TJP1 gene expression [5, 15] was 1.13. The CDN4 gene expression [5, 16] was 1.8, the CLDN1 gene expression [5, 16] was 1.6 and the DSC1 gene expression [5, 16] was 1.7. For the same compound, the DSG1 gene expression [5, 16] was 1.9, the FLG gene expression [5, 16] was 1.1 and the IVL gene expression [5, 16] was 2.3. The KRT10 gene expression [5, 16] was 1.6, the KRT16 gene expression [5, 16] was 0.8 and the LOR gene expression [5, 16] was 0.6. It also gave an OCLN gene expression [5, 16] of 1.2, a TJP1 gene expression [5, 16] of 1.2 and a CDN4 gene expression [5, 17] of 0.72. The CLDN1 gene expression [5, 17] was 0.37, the DSC1 gene expression [5, 17] was 6.09 and the DSG1 gene expression [5, 17] was 2.57. For the same compound, the FLG gene expression [5, 17] was 0.72, the IVL gene expression [5, 17] was 0.83 and the KRT10 gene expression [5, 17] was 5.78. It also gave a KRT16 gene expression [5, 17] of 0.85, an LOR gene expression [5, 17] of 0.95 and an OCLN gene expression [5, 17] of 0.57. For the same compound, the TJP1 gene expression [5, 17] was 0.57, the CDN4 gene expression [5, 18] was 3.17 and the CLDN1 gene expression [5, 18] was 2.20. For the same compound, the DSC1 gene expression [5, 18] was 2.20, the DSG1 gene expression [5, 18] was 6.61 and the FLG gene expression [5, 18] was 2.06. The IVL gene expression [5, 18] was 1.76, the KRT10 gene expression [5, 18] was 6.44 and the KRT16 gene expression [5, 18] was 1.14. It also gave an LOR gene expression [5, 18] of 0.79, an OCLN gene expression [5, 18] of 1.92 and a TJP1 gene expression [5, 18] of 1.44.
